Measurements: patent US8022235B2, “Compositions of phospholipid ether boronic acids and esters and methods for their synthesis and use” (Cellectar, Inc., priority 2007, dated 2011)
“Also recorded” adds a separate entry of the source.

Tests used:
Lung A-549 (NSCLC) = experiment: Imaging and tissue distribution, tumor model; assay type: in vivo, SCID Mouse; conditions: Adenocarcinoma
Colon LS-180 = experiment: Imaging and tissue distribution, tumor model; assay type: in vivo, Nude Mouse; conditions: Adenocarcinoma
Mammary MCF-7 = experiment: Imaging and tissue distribution, tumor model; assay type: in vivo, Rat; conditions: Adenocarcinoma
Prostate MatLyLu = experiment: Gamma camera scintigraphy screen in Dunning R3327 (MAT LyLu) prostate cancer model; assay type: in vivo, Copenhagen rats
Protocol: The avidity of PLE and APC analogs to localize in tumors was evaluated in several animal models. The PC-3 model represents a human tumor cell line that was used to determine the target (tumor) to non-target ratio of NM404 and NM412 in head to head comparison in order to select a candidate for an initial human pharmacokinetic trial in prostate cancer patients. The MatLyLu (Dunning R3327 rat) model, a rat prostate tumor line, was used specifically to screen 9 specific analogs prior to entering them into control for dosimetry and tumor-bearing animals for determining tumor/background ratios. Finally, the Walker-256 carcinosarcoma model was used for quantitative tissue distribution purposes.
In order to expedite the screening process and minimize the number of tumor bearing animals utilized in multiple time point tissue distribution studies, new radioiodinated homologs were imaged by gamma camera scintigraphy in the rat Dunning […] (MAT LyLu strain) prostate cancer model. Thus, male Copenhagen rats received a subcutaneous injection of MAT LyLu cells (1×10^6 cells) in the thigh 10-14 days prior to injection of the radioiodinated PLE analogs (30-40 μCi) in 2% Tween-20 solution. Gamma camera images were obtained at multiple time points including 24 and 48 hours post injection. […] Tissue distribution of radioactivity in rats bearing Walker-256 carcinosarcoma was assessed at various time intervals following intravenous administration of the radioiodinated chain length homologs. The first group of compounds that was tested included three alkylphosphocholines: a shorter chain analog with seven carbons NM396 and two analogs with a longer chain length, 13 (NM397, C15 alkyl chain length) and 1 (NM404, C18 alkyl chain length).
In order to decrease liver uptake and prolong the plasma phase, the inventors examined 9 structural analogs of NM324 to identify agents that would display improved tumor-to-background tissue ratios with decreased liver uptake. The new PLE analogs were synthesized and radiolabeled with ^125I for initial image analysis in Copenhagen rats bearing Dunning R3327 prostate tumors. […] NM404 was therefore selected to undergo further imaging and biodistribution analysis in a variety of animal-tumor models.

TRAMP prostate = experiment: Imaging and tissue distribution, tumor model; assay type: in vivo, Spontaneous mouse; conditions: Adenocarcinoma
Subcutaneous CT-26 = experiment: Imaging and tissue distribution, tumor model; assay type: in vivo, Mouse xenograft; conditions: Colorectal adenocarcinoma
Description: (§1) Imaging and tissue distribution studies performed in mouse models aimed at determining the uptake characteristics in a wide variety of tumor models are summarized in Table 1, below.

Hepatocellular Carcinoma = experiment: Imaging and tissue distribution, tumor model; assay type: in vivo, Spontaneous TGF-α mouse; conditions: Adenocarcinoma
Description: as §1

Adenomatous Polyp = experiment: Imaging and tissue distribution, tumor model; assay type: in vivo, Spontaneous Mouse; conditions: Adenoma
Mammary Hyperplasia = experiment: Imaging and tissue distribution, tumor model; assay type: in vivo, Endogenous Mouse; conditions: Alveolar Hyperplasia
albumin fraction = molecular target: T1, albumin fraction (Rattus norvegicus, UniProt P02770); experiment: PAGE analysis of plasma radioactivity distribution after iodine-125 labeled 1; assay type: in vivo, Walker-256 tumor-bearing rats; conditions: plasma 7 days after administration
T1 construct: plasma was isolated from Walker-256 tumor-bearing rats; from tissue; host or cells: plasma of Walker-256 tumor-bearing rats
T1 sequence (P02770 25-608): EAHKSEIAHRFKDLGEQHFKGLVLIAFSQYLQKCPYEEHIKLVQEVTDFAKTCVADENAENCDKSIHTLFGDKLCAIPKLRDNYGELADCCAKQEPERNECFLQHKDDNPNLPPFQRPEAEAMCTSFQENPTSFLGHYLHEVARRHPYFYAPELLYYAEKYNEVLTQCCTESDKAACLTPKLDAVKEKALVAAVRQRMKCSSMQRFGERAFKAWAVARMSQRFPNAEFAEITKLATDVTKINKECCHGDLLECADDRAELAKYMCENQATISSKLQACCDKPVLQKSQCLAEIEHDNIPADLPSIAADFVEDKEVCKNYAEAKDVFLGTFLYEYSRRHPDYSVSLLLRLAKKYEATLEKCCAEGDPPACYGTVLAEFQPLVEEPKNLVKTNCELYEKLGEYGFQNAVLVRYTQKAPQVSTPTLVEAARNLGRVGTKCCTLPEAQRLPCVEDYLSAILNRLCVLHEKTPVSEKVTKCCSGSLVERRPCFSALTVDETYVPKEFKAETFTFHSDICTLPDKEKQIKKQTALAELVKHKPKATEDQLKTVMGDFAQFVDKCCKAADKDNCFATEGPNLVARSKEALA
Description: In order to examine the transport properties of PLE analogs, plasma was isolated from Walker-256 tumor-bearing rats 7 days after administration of iodine-125 labeled 1. The distribution of radioactivity in the plasma compartment of a rat receiving 1 (NM404) was studied.

[1] = Toxicology studies of unlabeled NM404 in rabbits; assay type: in vivo; conditions: for toxic effects: 14 days observation
Description: In preparation for human clinical trials, unlabeled NM404 was subjected to independent (University of Buffalo Toxicology Research Center) acute toxicity evaluation at 1200 times the anticipated imaging mass dose in rats and rabbits. […] Due to its selective tumor uptake and retention properties in a variety of rodent tumor models and subsequent excellent safety profile in rats and rabbits, NM404 was selected to undergo initial human pharmacokinetic evaluation in non-small cell lung cancer (NSCLC) patients. Patients underwent planar gamma-camera scintigraphy after receiving an injection of ^131I-NM404 (<1 mCi).
Formal toxicology studies of NM404 in male rats and rabbits were performed at the Toxicology Research Center of the State University of New York at Buffalo under the direction of Dr. Paul Kostyniak. Drug vehicle and drug product were provided to Dr. Kostyniak by Dr. Raymond Counsell of the University of Michigan for testing as described in the appended synopses of Study 27 and Study 28. […] Human safety studies of unlabeled NM404 were initiated in normal male humans at a mass of 10 times the anticipated imaging dose and about 21 times the anticipated therapy dose. […] This toxicology study was performed under GLP conditions.
Subsequently, the inventors initiated a toxicology study of unlabeled NM404 in female rats and rabbits (Study 31 and Study 32) at the Toxicology Research Center at SUNY-Buffalo in order to expand the patient population to be studied in the NSCLC Phase 1 clinical trial. […] Human safety studies of unlabeled NM404 were initiated in normal female humans at a mass of 10 times the initially anticipated imaging dose and about 21 times the anticipated therapy dose. […] This toxicology study was performed under GLP conditions.

[2] = tested on: spontaneous murine lung tumors; experiment: Bioscan imaging of spontaneous lung tumor; assay type: in vivo, ApcMin mouse; conditions: 125I-NM404, image 4 days post injection, 2 mm tumor
[3] = tested on: human PC-3 prostate tumor xenografts; experiment: Scintigraphy, microPET and tissue distribution in PC-3 tumor model; assay type: in vivo, SCID mice; conditions: metastatic prostate tumor model, scintigraphy, FIG. 9

With `C[N+](C)(C)CCOP(=O)([O-])OCCCCCCCCCCCCCCCCCCc1ccc(I)cc1` [NM404, 18-(p-iodophenyl)-octadecyl phosphocholine] the Uptake (Lung A-549 (NSCLC)) was “Yes”, the Uptake (Colon LS-180) was “Yes” and the Uptake (Mammary MCF-7) was “Yes”. The “tumor visualization by gamma camera scintigraphy” value (Prostate MatLyLu; 24 and 48 hours after injection) was “readily visualized”, the liver activity (Prostate MatLyLu; 125I-labeled, initial image screen, compared with NM324) was “much lower liver activity” and the Uptake (Prostate MatLyLu; Adenocarcinoma) was “Yes”. The “duration of tumor retention” value (Prostate MatLyLu; initial screen, FIG. 7) was “over 20 days”, the Uptake (TRAMP prostate) was “Yes” and the Uptake (Subcutaneous CT-26) was “Yes”. The Uptake (Hepatocellular Carcinoma) was “Yes”, the Uptake (Adenomatous Polyp) was “No” and the Uptake (Mammary Hyperplasia) was “No”. The “circulating radioactivity associated with the albumin fraction” value (albumin fraction) was 88%, the acute toxicity ([1]; 1200 times the anticipated imaging mass dose) was “well tolerated and no acute toxicities were found” and the toxic effects ([1]; female rabbits, single dose 0.04 mg/kg, Study 32, GLP) was “No significant toxic effects”. For the same compound, the toxic effects ([1]; male rabbits, single dose 4 mg/kg, Study 28, GLP) was “No significant toxic effects”, the “uptake / retention in tumor” value [2] was “retained in spontaneous murine lung tumors; also recorded: intense uptake” and the “localization in lymph node metastases” value [3] was “localize in lymph node metastases”.
